Measurements: patent US6864245B2, “Biocompatible poly-β-1→4-N-acetylglucosamine” (priority 1993, dated 2005)
Several values for one entry are separate records, joined by “and”; a condition that tells them apart may be missing. Identical values can stand only once. Like-named read-outs stand apart in the source and are kept apart here.

System: HT29 colon tumors
Conditions: Intravenous Injection, daily

In the case of `O=c1[nH]cc(F)c(=O)[nH]1` [5′-FU, 5′-fluorouracil], the “% Change” value (High Dose) is reported as −67.0%, the “Comments (death)” value (High Dose) is reported as “Died day 13” and the “Tumor Volume Post-treatment” value (High Dose) is reported as 132 mm^3. For the same molecule, the “Tumor Volume Pre-Treatment” value (High Dose) was 402 mm^3, the “Comments (death)” value (Low Dose) was “Died day 13” and the “Tumor Volume Post-treatment” value (Low Dose) was 703 mm^3 and 402 mm^3. For the same molecule, the “Tumor Volume Pre-Treatment” value (Low Dose) was 402 mm^3.
